Patent US20220274954A1, “SUBSTITUTED N-PHENYL-N-AMINOUARCILS AND SALTS THEREOF AND USE THEREOF AS HERBICIDAL AGENTS” (Bayer Aktiengesellschaft, priority 2019, published 2022)

Experiments:
Type in all cases: in vivo
[1] = test system: Triticum aestivum; experiment: Pre-emergence crop plant compatibility; conditions: application rate 20 g/ha
Description: (§1) Seeds of monocotyledonous and dicotyledonous weed plants and crop plants were placed in plastic or organic planting pots and covered with soil. The compounds of the invention, formulated in the form of wettable powders (WP) or as emulsion concentrates (EC), were then applied to the surface of the covering soil as aqueous suspension or emulsion with addition of 0.5% additive at a water application rate equivalent to […] (converted). After the treatment, the pots were placed in a greenhouse and kept under good growth conditions for the test plants. After about 3 weeks, the effect of the preparations was scored visually in comparison with untreated controls as percentages. For example, 100% activity=the plants have died, 0% activity=like control plants.
(§2) Here, the observed effects on selected crop plants are stated in comparison to the untreated controls (values in %).

[2] = test system: Brassica napus; experiment: Pre-emergence crop plant compatibility; conditions: application rate 20 g/ha
Description: as §1, §2

[3] = test system: Zea mays; experiment: Pre-emergence crop plant compatibility
Description: as §1, §2

[4] = test system: Glycine max; experiment: Pre-emergence crop plant compatibility; conditions: application rate 80 g/ha
Description: as §1, §2

[5] = test system: Oryza sativa; experiment: Post-emergence crop plant compatibility; conditions: application rate 5 g/ha
Procedure, shortened: (§3)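 Greenhouse plants in sandy loam were sprayed at the one-leaf stage, 2–3 weeks after sowing, with WP or EC formulations in water plus 0.5% additive at […]. Damage was rated visually after about 3 weeks as % versus untreated controls, where 100% means dead plants and 0% means like controls.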

[6] = test system: Triticum aestivum; experiment: Post-emergence crop plant compatibility
Procedure, shortened: as §3

[7] = test system: Brassica napus; experiment: Post-emergence crop plant compatibility
Procedure, shortened: as §3

[8] = test system: Polygonum convolvulus; experiment: Post-emergence herbicidal action; conditions: Fallopia convolvulus, 504 h, application rate 5 g/ha, read-out: Polygonum convolvulus (efficacy in %)
Procedure, shortened: (§4)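 Plants grown from seed in sandy loam in the greenhouse were sprayed at the one-leaf stage, 2 to 3 weeks after sowing, with WP or EC formulations in water plus 0.5% additive at 20 g/ha or less. Activity was rated visually after about 3 weeks against untreated controls (100% = plants died, 0% = like control).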

[9] = test system: Matricaria inodora; experiment: Post-emergence herbicidal action; conditions: Tripleurospermum inodorum, 504 h, application rate 5 g/ha, read-out: Matricaria inodora (efficacy in %)
Procedure, shortened: as §4

[10] = test system: Veronica persica; experiment: Post-emergence herbicidal action; conditions: Veronica persica, 504 h, application rate 5 g/ha, read-out: Veronica persica (efficacy in %)
Procedure, shortened: as §4

[11] = test system: Pharbitis purpurea; experiment: Post-emergence herbicidal action; conditions: Ipomoea purpurea, 504 h, application rate 5 g/ha, read-out: Pharbitis purpurea (efficacy in %)
Procedure, shortened: as §4

[12] = test system: Setaria viridis; experiment: Post-emergence herbicidal action; conditions: 504 h, application rate 5 g/ha, read-out: Setaria viridis (efficacy in %)
Procedure, shortened: as §4

[13] = test system: Abutilon theophrasti; experiment: Post-emergence herbicidal action; conditions: Abutilon theophrasti, 504 h, application rate 5 g/ha, read-out: Abutilon theophrasti (efficacy in %)
Procedure, shortened: as §4

[14] = test system: Polygonum convolvulus; experiment: Pre-emergence herbicidal action; conditions: scored after about 3 weeks
Description: as §1
(§5) Tables B1 to B11 below show the effects of selected compounds of the general formula (I) according to Tables I.1 to I.34 on various harmful plants and at an application rate corresponding to 80 g/ha and less, which were obtained by the experimental procedure mentioned above.

[15] = test system: Digitaria sanguinalis; experiment: Pre-emergence herbicidal action; conditions: application rate 80 g/ha, scored after about 3 weeks
Description: as §1, §5

[16] = test system: Amaranthus retroflexus; experiment: Pre-emergence herbicidal action; conditions: scored after about 3 weeks
Description: as §1, §5

[17] = test system: Matricaria inodora; experiment: Pre-emergence herbicidal action; conditions: application rate 80 g/ha, scored after about 3 weeks
Description: as §1, §5

[18] = test system: Veronica persica; experiment: Pre-emergence herbicidal action; conditions: scored after about 3 weeks
Description: as §1, §5

[19] = test system: Pharbitis purpurea; experiment: Pre-emergence herbicidal action; conditions: application rate 80 g/ha, scored after about 3 weeks
Description: as §1, §5

[20] = test system: Echinochloa crus-galli; experiment: Pre-emergence herbicidal action; conditions: application rate 80 g/ha, scored after about 3 weeks
Description: as §1, §5

[21] = test system: Viola tricolor; experiment: Pre-emergence herbicidal action; conditions: application rate 20 g/ha, scored after about 3 weeks
Description: as §1, §5

[22] = test system: Setaria viridis; experiment: Pre-emergence herbicidal action; conditions: application rate 80 g/ha, scored after about 3 weeks
Description: as §1, §5

[23] = test system: Abutilon theophrasti; experiment: Pre-emergence herbicidal action; conditions: application rate 80 g/ha, scored after about 3 weeks
Description: as §1, §5

[24] = test system: Alopecurus myosuroides; experiment: Pre-emergence herbicidal action; conditions: application rate 80 g/ha
Description: as §1, §5

Question: Which “Triticum aestivum (efficacy in %)” value [1] does the source give for `CCOC(=O)CCOc1ncccc1Sc1cc(-n2c(=O)cc(C(F)(F)F)n(N)c2=O)c(F)cc1Cl` [I.5-442, Ethyl 3-{[3-({5-[3-amino-2,6-dioxo-4-(trifluoromethyl)-3,6-dihydropyrimidin-1(2H)-yl]-2-chloro-4-fluorophenyl}sulfanyl)pyridin-2-yl]oxy}propanoate] here?
Answer: Its value is 20%.

Question: What about the “Brassica napus (efficacy in %)” value [2] of the same compound?
Answer: Its value is 0%.

Question: And the “Zea mays (efficacy in %)” value ([3]; application rate 20 g/ha)?
Answer: The value was 0%.

Question: What about the “Zea mays (efficacy in %)” value ([3]; application rate 80 g/ha) of the same compound?
Answer: Its value is 20%.

Question: What about the “Glycine max (efficacy in %)” value [4] of the same compound?
Answer: Its value is 0%.

Question: And the “Oryza sativa (efficacy in %)” value [5]?
Answer: Its value is 20%.

Question: And the “Triticum aestivum (efficacy in %)” value ([6]; application rate 1.25 g/ha)?
Answer: The value was 10%.

Question: And the “Triticum aestivum (efficacy in %)” value ([6]; application rate 5 g/ha)?
Answer: Its value is 20%.

Question: What about the “Brassica napus (efficacy in %)” value [7] of the same compound?
Answer: Its value is 0%.

Question: And the “Brassica napus (efficacy in %)” value ([7]; application rate 5 g/ha)?
Answer: Its value is 20%.

Question: And the pest or weed control at 5 g/ha [8]?
Answer: Its pest or weed control at 5 g/ha is 100%.

Question: And the pest or weed control at 5 g/ha [9]?
Answer: The pest or weed control at 5 g/ha was 80%.

Question: What about the pest or weed control at 5 g/ha [10] of the same compound?
Answer: The pest or weed control at 5 g/ha was 100%.

Question: What about the pest or weed control at 5 g/ha [11] of the same compound?
Answer: The pest or weed control at 5 g/ha was 100%.

Question: What about the pest or weed control at 5 g/ha [12] of the same compound?
Answer: The pest or weed control at 5 g/ha was 90%.

Question: What about the pest or weed control at 5 g/ha [13] of the same compound?
Answer: The pest or weed control at 5 g/ha was 100%.

Question: And the “Polygonum convolvulus (efficacy in %)” value ([14]; application rate 20 g/ha)?
Answer: The value was 100%.

Question: And the “Polygonum convolvulus (efficacy in %)” value ([14]; application rate 80 g/ha)?
Answer: The value was 100%.

Question: And the “Digitaria sanguinalis (efficacy in %)” value [15]?
Answer: The value was 80%.

Question: And the “Amaranthus retroflexus (efficacy in %)” value ([16]; application rate 20 g/ha)?
Answer: The value was 100%.

Question: And the “Amaranthus retroflexus (efficacy in %)” value ([16]; application rate 80 g/ha)?
Answer: Its value is 100%.

Question: What about the “Matricaria inodora (efficacy in %)” value [17] of the same compound?
Answer: Its value is 90%.

Question: And the “Veronica persica (efficacy in %)” value ([18]; application rate 20 g/ha)?
Answer: The value was 90%.

Question: What about the “Veronica persica (efficacy in %)” value ([18]; application rate 80 g/ha) of the same compound?
Answer: The value was 100%.

Question: And the “Pharbitis purpurea (efficacy in %)” value [19]?
Answer: Its value is 100%.

Question: What about the “Echinochloa crus-galli (efficacy in %)” value [20] of the same compound?
Answer: Its value is 80%.

Question: What about the “Viola tricolor (efficacy in %)” value [21] of the same compound?
Answer: Its value is 100%.

Question: And the “Setaria viridis (efficacy in %)” value [22]?
Answer: Its value is 100%.

Question: What about the “Abutilon theophrasti (efficacy in %)” value [23] of the same compound?
Answer: Its value is 100%.

Question: What about the “Alopecurus myosuroides (efficacy in %)” value [24] of the same compound?
Answer: The value was 80%.
